Values quoted from earlier work as cited in patent US6777573B1, “Method for the synthesis of ceralure B1” (The United States of America as represented by the …, priority 2002, dated 2004).
Entries after “also recorded” stand apart in the source; their conditions may differ.

Tested on: Ceratitis capitata (Mediterranean fruit fly, medfly)

CCOC(=O)C1CC(I)CCC1C (single isomer, unassigned; (-)) [(−)ceralure B1, reference compound]
higher attractancy than the racemate (optically active form versus racemic ceralure B1 (Raw et al.)): about 30%

CCOC(=O)C1CC(I)CCC1C (mixture of isomers) [ceralure B1, ethyl cis,trans-5-iodo-2-methylcyclohexane-1-carboxylate]
relative attractiveness among ceralure isomers (isomers separated by HPLC, study of 4 trans isomers (Warthen et al. 1994)): most active isomer; also recorded: superior to the other three isomers
